Results as given in patent US11932908B2, “Compositions and methods for diagnosis and treatment of epilepsy” (THE REGENTS OF THE UNIVERSITY OF CALIFORNIA, priority 2004, dated 2024).
Entries after “also recorded” stand apart in the source; their conditions may differ. Read-outs that look alike come from different tables or passages of the source.

Columns and labels:
JME seizures = conditions: JME patients, cited from earlier work
L-type HVDCC = conditions: cited from earlier work
N type HVDCC = N type HVDCC (Homo sapiens, UniProt Q00975); conditions: cited from earlier work
P type HVDCC = P type HVDCC (Homo sapiens, UniProt O00555); conditions: cited from earlier work
[1] = cited from earlier work
T type VDCC = conditions: cited from earlier work
[2] = tested on: high voltage activated calcium currents (HVDCC); conditions: cited from earlier work
[3] = tested on: EFHC1-transfected hippocampal primary culture neurons; experiment: Cell death analyses with VDCCs inhibitors; assay type: cell-based, mouse
Protocol: Cell death analyses with VDCCs inhibitors. Dissociated hippocampal primary culture neurons from embryonic day 16 mice were seeded in 24 well plates containing poly-L-lysine coated coverslips (5×10^4 cells/well). Neurons were transfected with pEGFP-EFHC1 on day 6 in vitro with antagonists and fixed 48 hours post transfection. Calcium channel inhibitors, ω-Agatoxin IVA (PEPTIDE […], INC.) for P-type (Cav2.1), ω-Conotoxin GVIA (PEPTIDE […], INC.) for N-type (Cav2.2), SNX-482 (PEPTIDE […], INC.) for R-type (Cav2.3), flunarizine (Nacalai Tesque) for T-type and nifedipine (SIGMA) for L-type VDCC, were added directly to neuronal culture 3 hrs post transfection.

R-type VDCC (Cav2.3) = target: T1, R-type VDCC (Cav2.3) (Oryctolagus cuniculus, UniProt Q02343); experiment: Patch-clamp analyses of BHK cells stably expressing Cav2.3 transfected with EFHC1 constructs; assay type: cell-based; conditions: whole cell patch-clamp, 24-48 hr after transfection
T1 construct: expressed in transfected cells; host or cells: BHK (BII-104-2) cells
Protocol: Electrophysiological analysis. A baby hamster kidney (BHK) cell line BHK (BII-104-2) stably transfected with the ociE (BII), α2/δ and β1a subunits, were cultured in DMEM medium containing 10% fetal bovine serum (FBS), 30 U/mL penicillin and 30 μg/mL streptomycin. To transiently express wild type or mutant EFHC1, BHK (BII-104-2) cells were transfected with the pEGFP-C2 plasmids (Clonetech) containing EGFP fused with cDNA for EFHC1 or its mutants using SuperFect Transfection Reagent (QIAGEN). For control experiments, EGFP was transiently expressed by transfecting BHK (BII-104-2) with the same amount of pEGFP without the EFHC1 inserts. Cells were trypsinized, diluted with the DMEM medium, and plated onto glass coverslips 18 hrs after transfection. Ca^2+ currents were recorded 24-48 hr after transfection from GFP-positive cells. Currents from BHK (BII-104-2) cells were recorded at room temperature (22-25° C.) using patch-clamp techniques of whole cell mode with an EPC-9 amplifier (HEKA, Germany). Patch pipettes were made from borosilicate glass capillaries (1.5 mm outer diameter and 0.87 mm inner diameter; Hilgenberg) by using a model P-97 Flaming-Brown micropipette puller (Sutter Instrument Co., CA). Pipette resistance ranged from 2 to 3 MΩ when filled with the pipette solutions described below. The series resistance was electronically compensated to >70% and both the leakage and the remaining capacitance were subtracted by −P/6 method. Currents were sampled at 100 kHz in activation kinetics, otherwise sampled at 50 kHz and filtered at 10 kHz. Calcium currents were recorded in an external solution that contained (in mM): 3 CaCl2, 148 tetraethylammonium chloride (TEA-C1), 10 glucose, and 10 HEPES, pH adjusted to 7.4 with Tris-OH. The pipette solution contained (in mM): 85 Cs-aspartate, 40 CsCl, 4 MgCl2, 5 EGTA, 2 ATP2Na, 5 HEPES, and 8 creatine-phosphate, pH adjusted to 7.4 with CsOH. To determine voltage-dependence of activation, amplitude of tail currents at −50 mV after 5 ms test pulse (−40 to 90 mV) was normalized to the maximal tail current amplitude. […]

PQ type VDCC (Cav2.1) = target: T2, PQ type VDCC (Cav2.1) (Oryctolagus cuniculus, UniProt P27884); experiment: Patch-clamp analyses of HEK cell line with P/Q type VDCCs and wild type EFHC1 or mutant constructs; assay type: cell-based
T2 construct: expressed in transfected cells; host or cells: HEK cell line
T2 sequence (P27884 whole entry): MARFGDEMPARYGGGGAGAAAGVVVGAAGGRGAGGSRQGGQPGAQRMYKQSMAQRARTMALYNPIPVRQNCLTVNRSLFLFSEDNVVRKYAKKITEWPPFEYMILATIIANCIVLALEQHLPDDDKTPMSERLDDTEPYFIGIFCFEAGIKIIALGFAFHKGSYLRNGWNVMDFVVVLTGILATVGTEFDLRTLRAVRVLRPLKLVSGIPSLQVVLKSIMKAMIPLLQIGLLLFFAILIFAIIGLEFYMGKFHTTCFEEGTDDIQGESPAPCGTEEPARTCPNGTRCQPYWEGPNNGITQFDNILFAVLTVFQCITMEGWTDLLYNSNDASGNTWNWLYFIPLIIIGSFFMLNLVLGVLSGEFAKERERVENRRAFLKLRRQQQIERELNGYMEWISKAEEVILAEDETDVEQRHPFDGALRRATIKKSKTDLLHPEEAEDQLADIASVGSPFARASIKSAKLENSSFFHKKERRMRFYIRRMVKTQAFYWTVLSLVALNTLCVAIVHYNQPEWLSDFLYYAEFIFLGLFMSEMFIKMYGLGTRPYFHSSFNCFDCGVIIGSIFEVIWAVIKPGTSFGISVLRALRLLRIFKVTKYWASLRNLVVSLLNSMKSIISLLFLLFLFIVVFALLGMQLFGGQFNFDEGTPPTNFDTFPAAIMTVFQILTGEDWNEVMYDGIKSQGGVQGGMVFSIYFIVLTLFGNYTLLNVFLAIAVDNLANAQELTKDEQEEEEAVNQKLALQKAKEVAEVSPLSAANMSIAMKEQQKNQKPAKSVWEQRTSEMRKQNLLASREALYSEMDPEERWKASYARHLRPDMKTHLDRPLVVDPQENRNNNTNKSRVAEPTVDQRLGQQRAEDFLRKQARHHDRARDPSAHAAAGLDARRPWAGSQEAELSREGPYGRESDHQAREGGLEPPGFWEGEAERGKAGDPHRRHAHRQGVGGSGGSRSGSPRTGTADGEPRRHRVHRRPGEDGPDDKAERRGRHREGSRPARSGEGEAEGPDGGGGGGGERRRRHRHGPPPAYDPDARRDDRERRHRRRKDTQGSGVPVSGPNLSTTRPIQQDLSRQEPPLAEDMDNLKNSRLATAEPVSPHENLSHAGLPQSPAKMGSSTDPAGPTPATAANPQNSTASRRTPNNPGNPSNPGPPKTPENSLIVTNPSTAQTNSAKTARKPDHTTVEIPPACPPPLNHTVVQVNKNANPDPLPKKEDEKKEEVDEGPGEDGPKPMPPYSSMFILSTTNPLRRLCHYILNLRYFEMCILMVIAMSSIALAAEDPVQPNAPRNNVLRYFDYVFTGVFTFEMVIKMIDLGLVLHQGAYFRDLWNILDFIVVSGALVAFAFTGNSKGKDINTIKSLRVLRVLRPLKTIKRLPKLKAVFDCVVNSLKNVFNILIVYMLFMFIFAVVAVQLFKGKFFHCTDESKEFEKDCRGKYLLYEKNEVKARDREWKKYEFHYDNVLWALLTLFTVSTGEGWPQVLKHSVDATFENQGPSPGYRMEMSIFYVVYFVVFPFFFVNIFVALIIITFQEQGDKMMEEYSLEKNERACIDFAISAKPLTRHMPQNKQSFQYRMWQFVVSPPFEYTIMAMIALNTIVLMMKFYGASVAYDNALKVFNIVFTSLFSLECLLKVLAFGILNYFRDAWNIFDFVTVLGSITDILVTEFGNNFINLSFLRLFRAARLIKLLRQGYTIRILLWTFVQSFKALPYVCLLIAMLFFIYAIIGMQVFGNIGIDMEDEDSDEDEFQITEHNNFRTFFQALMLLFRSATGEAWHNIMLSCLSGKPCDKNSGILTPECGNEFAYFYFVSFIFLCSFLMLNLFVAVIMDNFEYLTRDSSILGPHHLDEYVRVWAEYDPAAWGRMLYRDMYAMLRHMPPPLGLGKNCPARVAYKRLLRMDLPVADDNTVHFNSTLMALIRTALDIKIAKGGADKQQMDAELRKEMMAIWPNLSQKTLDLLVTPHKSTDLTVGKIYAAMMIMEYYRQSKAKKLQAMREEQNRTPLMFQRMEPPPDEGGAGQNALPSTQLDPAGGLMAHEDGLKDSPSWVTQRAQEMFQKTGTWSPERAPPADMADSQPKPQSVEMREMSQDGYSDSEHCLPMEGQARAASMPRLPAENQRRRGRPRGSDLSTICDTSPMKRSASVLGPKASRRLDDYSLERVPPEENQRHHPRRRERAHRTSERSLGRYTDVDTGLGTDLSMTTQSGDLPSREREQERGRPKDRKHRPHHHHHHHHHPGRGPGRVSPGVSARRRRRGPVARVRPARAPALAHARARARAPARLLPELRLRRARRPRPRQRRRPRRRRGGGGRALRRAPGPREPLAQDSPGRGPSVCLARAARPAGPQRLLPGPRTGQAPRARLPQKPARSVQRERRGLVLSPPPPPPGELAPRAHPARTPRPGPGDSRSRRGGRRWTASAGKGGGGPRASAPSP
T2 sequence (P13806 27-1106 partner): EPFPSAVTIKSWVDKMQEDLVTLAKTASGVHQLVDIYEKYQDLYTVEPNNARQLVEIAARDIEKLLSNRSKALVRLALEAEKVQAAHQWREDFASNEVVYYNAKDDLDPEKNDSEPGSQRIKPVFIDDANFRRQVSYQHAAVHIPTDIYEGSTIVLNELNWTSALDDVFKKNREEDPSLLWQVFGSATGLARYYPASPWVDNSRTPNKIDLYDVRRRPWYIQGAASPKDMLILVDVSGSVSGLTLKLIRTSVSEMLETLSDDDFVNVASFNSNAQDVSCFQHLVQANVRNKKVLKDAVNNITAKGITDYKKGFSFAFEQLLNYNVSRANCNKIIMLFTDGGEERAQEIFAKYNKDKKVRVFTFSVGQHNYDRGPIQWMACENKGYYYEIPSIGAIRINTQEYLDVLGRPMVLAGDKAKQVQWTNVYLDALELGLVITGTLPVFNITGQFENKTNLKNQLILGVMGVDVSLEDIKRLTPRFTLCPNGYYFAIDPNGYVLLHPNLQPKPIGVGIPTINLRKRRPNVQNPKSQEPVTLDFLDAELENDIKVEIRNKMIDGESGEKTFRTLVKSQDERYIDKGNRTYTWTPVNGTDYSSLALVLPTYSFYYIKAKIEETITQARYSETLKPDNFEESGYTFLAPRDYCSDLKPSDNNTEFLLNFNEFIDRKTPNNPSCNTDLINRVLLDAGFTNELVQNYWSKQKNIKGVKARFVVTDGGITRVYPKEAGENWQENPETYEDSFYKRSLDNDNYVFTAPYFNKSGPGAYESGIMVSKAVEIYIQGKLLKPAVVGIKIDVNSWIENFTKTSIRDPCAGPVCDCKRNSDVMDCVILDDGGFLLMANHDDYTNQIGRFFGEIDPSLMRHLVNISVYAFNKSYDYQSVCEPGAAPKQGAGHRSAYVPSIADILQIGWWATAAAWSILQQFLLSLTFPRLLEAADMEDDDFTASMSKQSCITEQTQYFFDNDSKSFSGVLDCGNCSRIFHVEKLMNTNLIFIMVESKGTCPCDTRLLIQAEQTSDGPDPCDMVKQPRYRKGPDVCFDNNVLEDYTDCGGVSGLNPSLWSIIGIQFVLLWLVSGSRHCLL
T2 sequence (P19517 whole entry partner): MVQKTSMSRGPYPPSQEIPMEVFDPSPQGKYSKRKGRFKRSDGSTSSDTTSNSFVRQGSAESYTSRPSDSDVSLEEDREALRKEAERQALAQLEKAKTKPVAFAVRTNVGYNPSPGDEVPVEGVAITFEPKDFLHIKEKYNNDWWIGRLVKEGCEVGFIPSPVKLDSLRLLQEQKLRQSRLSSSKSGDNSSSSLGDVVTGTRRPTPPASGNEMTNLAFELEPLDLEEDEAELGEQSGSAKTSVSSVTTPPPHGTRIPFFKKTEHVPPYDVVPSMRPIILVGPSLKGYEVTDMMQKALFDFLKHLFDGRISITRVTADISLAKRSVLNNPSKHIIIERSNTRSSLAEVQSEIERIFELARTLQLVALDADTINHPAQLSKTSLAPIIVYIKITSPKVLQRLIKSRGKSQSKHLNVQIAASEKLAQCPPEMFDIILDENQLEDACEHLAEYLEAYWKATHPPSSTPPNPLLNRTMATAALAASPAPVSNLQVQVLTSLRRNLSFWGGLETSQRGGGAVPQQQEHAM

[4] = tested on: mouse hippocampal primary culture neurons; conditions: 24, 36 and 48 hours after transfection; mutants compared to wild-type EFHC1

Q: Which “effect on JME seizures” value (JME seizures) does the source give for Nc1nnc(-c2cccc(Cl)c2Cl)c(N)n1 [Lamotrigine] here?
A: seizure-suppressing; also recorded: suppress JME seizures; also recorded: seizure suppressing

Q: And the “L type HVDCC” value (L-type HVDCC)?
A: spares

Q: What about the “N type HVDCC” value (N type HVDCC) of the same molecule?
A: inhibits

Q: And the “P type HVDCC” value (P type HVDCC)?
A: inhibits

Q: What about the “Seizure protecting plasma concentrations in humans” value [1] of the same molecule?
A: 3 to 14 µg/mL

Q: With CC[C@@H](C(N)=O)N1CCCC1=O [Levetiracetam] as the molecule, how does the “effect on JME seizures” value (JME seizures) read?
A: seizure-suppressing; also recorded: suppress JME seizures; also recorded: seizure suppressing

Q: What about the “T type VDCC” value (T type VDCC) of the same molecule?
A: no effects

Q: And the “high voltage activated calcium currents” value ([2]; specific type not defined)?
A: depresses

Q: What about the “Seizure protecting plasma concentrations in humans” value [1] of the same molecule?
A: 5 to 45 µg/mL

Q: What does the source list for CC1(C)O[C@@H]2[C@@H](CO[C@@]3(COS(N)(=O)=O)OC(C)(C)O[C@@H]23)O1 [Topiramate]?
A: effect on JME seizures (JME seizures): seizure-suppressing; also recorded: suppress JME seizures; also recorded: seizure suppressing; peak of L-type HVDCC (L-type HVDCC; 10 μmol/L): decreased; Seizure protecting plasma concentrations in humans [1]: 5 to 10 µg/mL

Q: What does the source list for NS(=O)(=O)Cc1noc2ccccc12 [Zonisamide]?
A: effect on JME seizures (JME seizures): suppress JME seizures; effect on JME seizures (JME seizures; listed as zonizamide): seizure-suppressing; also recorded: seizure suppressing; T type LVDCC (T type VDCC; 500 μmol/L, cultured fetal rat cortical neurons): reduces; HVDCC ([2]; 500 μmol/L): does not alter; N-type Ca^2+ channel activity (N type HVDCC; 500 μmol/L): enhances; P-type calcium channel activity (P type HVDCC; 500 μmol/L): possibly reduces; Seizure protecting plasma concentrations in humans [1]: 15 to 40 µg/mL

Q: What does the source list for SNX-482?
A: apoptosis induced by EFHC1 overexpression ([3]; mouse hippocampal primary culture neurons): specifically suppressed; survival rates of EFHC1-positive neurons ([3]; surviving cells 48 hours after transfection, antagonist added 3 hrs post transfection): specifically increased

B1: F229L: EFHC1 protein with JME missense mutation F229L (Phe229Leu) (protein)
chain: MVSNPVHGLPFLPGTSFKDSTKTAFHRSQTLSYRNGYAIVRRPTVGIGGDRLQFNQLSQAELDELASKAPVLTYGQPKQAPPADFIPAHVAFDKKVLKFDAYFQEDVPMSTEEQYRIRQVNIYYYLEDDSMSVIEPVVENSGILQGKLIKRQRLAKNDRGDHYHWKDLNRGINITIYGKTFRVVDCDQFTQVFLESQGIELNPPEKMALDPYTELRKQPLRKYVTPSDLDQLKQFLTFDKQVLRFYAIWDDTDSMYGECRTYIIHYYLMDDTVEIREVHERNDGRDPFPLLMNRQRVPKVLVENAKNFPQCVLEISDQEVLEWYTAKDFIVGKSLTILGRTFFIYDCDPFTRRYYKEKFGITDLPRIDVSKREPPPVKQELPPYNGFGLVEDSAQNCFTLIPKAPKKDVIKMLVNDNKVLRYLAVLESPIPEDKDRRFVFSYFLATDMISIFEPPVRNSGIIGGKYLGRTKVVKPYSTVDNPVYYGPSDFFIGAVIEVFGHRFIILDTDEYVLKYMESNAAQYSPEALASIQNHVRKREAPAPEAESKQTEKDPGVQELEALIDTIQKQLKDHSCKDNIREAFQIYDKEASGYVDRDMFFKICESLNVPVDDSLVKELIRMCSHGEGKINYYNFVRAFSN
Q: Which results are given for B1?
A: R-type Ca2+ current generated by Cav2.3 (R-type VDCC (Cav2.3)): significantly suppressed; Activation V0.5 (mV) (PQ type VDCC (Cav2.1); half-maximal voltage of activation, mean ± SEM): 21.0 ± 3.4 mV; Inactivation V0.5 (mV) (PQ type VDCC (Cav2.1); half-maximal voltage of inactivation, mean ± SEM): −13.7 ± 2.4 mV; inactivation speed of P/Q type VDCC (decelerating effect on calcium inactivation) (PQ type VDCC (Cav2.1); patch-clamp): abolished the decelerating effect; Activation k (mV) (PQ type VDCC (Cav2.1); slope factor, mean ± SEM): 9.25 ± 0.43 mV; Inactivation K (mV) (PQ type VDCC (Cav2.1); slope factor, mean ± SEM): 6.53 ± 0.41 mV; cell-death effect (GFP-positive surviving cell numbers) [4]: significantly reversed
